Numbered stars: 1 amine (or outer) side, 2 acyl side, 3 side chain; on linkers, the order of the positions; unused ones are H or OH. Square brackets hold non-standard residues; d marks the D form. Peptide text beside a SMILES is read from it. * marks the point of attachment. X1 = CC(C)[C@H](N[*:1])C(=O)C(F)(F)C(=O)[*:2]; N(Indan-2-yl)Gly = O=C(O)CNC1Cc2ccccc2C1; Cbz = O=C(OCc1ccccc1)*
Legend:
Cricetinae gen. sp. [1] = test: Inhibition of Elastase-induced pulmonary Hemorrhage(EPH) in Hamsters at a dose of 10 ug/mL; type: functional, Cricetulus griseus
Cricetinae gen. sp. [2] = test: Inhibition of Elastase-induced pulmonary Hemorrhage(EPH) in Hamsters at a dose of 3 ug/mL; type: functional, Cricetulus griseus
Cricetinae gen. sp. [3] = test: Inhibition of Elastase-induced pulmonary Hemorrhage(EPH) in Hamsters at a dose of 20 ug/mL; type: functional, Cricetulus griseus
Neutrophil elastase = target: T1, Neutrophil elastase (Homo sapiens, UniProt P08246); test: Inhibitory activity against human leukocyte elastase (HLE) at pH 7.5
T1 sequence (P08246 whole entry): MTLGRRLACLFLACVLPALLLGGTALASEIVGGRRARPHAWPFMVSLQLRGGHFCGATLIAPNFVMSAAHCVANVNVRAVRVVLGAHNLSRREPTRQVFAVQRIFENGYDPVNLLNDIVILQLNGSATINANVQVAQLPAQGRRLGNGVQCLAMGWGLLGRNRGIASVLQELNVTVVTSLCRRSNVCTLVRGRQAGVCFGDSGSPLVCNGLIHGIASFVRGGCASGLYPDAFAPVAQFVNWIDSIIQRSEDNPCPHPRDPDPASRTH

SMILES | Max reduction (Cricetinae gen. sp. [1]) | Max reduction (Cricetinae gen. sp. [3]) | also measured
CCOC(=O)C(F)(F)C(=O)[C@@H](NC(=O)CN(C(=O)[C@@H](NC(=O)c1ccc(C(=O)NS(=O)(=O)c2ccc(Cl)cc2)cc1)C(C)C)C1Cc2ccccc2C1)C(C)C | 94.6% | – | –
CC(C)C(NC(=O)CN(C(=O)[C@@H](NC(=O)c1ccc(C(=O)NS(=O)(=O)c2ccc(Cl)cc2)cc1)C(C)C)C1Cc2ccccc2C1)C(=O)C(F)(F)F (stereo partly specified) | 90.5% | – | Max reduction (Cricetinae gen. sp. [2]): 58.1%
COC(=O)[C@H](CCCCNC(=O)C(F)(F)C(=O)[C@@H](NC(=O)CN(C(=O)[C@@H](NC(=O)OCc1ccccc1)C(C)C)C1Cc2ccccc2C1)C(C)C)NC(C)=O | – | 7.6% | –
CCOC(=O)C(F)(F)C(=O)[C@H](CC(C)C)NC(=O)CN(C(=O)[C@@H](NC(=O)c1ccc(C(=O)NS(=O)(=O)c2ccc(Cl)cc2)cc1)C(C)C)C1Cc2ccccc2C1 | – | 55.2% | –
CC(C)[C@H](NC(=O)OCc1ccccc1)C(=O)N(CC(=O)N[C@H](C(=O)C(F)(F)C(=O)O)C(C)C)C1Cc2ccccc2C1 | – | 55.8% | IC50 (Neutrophil elastase): > 5 µM
CCOC(=O)C(F)(F)C(=O)[C@@H](NC(=O)CN(C(=O)[C@@H](NC(=O)OCc1ccccc1)C(C)C)C1Cc2ccccc2C1)C(C)C | – | 51.9% | –
CCOC(=O)C(F)(F)C(=O)[C@H](Cc1ccccc1)NC(=O)CN(C(=O)[C@@H](NC(=O)c1ccc(C(=O)NS(=O)(=O)c2ccc(Cl)cc2)cc1)C(C)C)C1Cc2ccccc2C1 | 12.2% | – | IC50 (Neutrophil elastase): > 5 µM
CCOC(=O)CNC(=O)CNC(=O)C(F)(F)C(=O)[C@@H](NC(=O)CN(C(=O)[C@@H](NC(=O)OCc1ccccc1)C(C)C)C1Cc2ccccc2C1)C(C)C (Cbz-V[N(Indan-2-yl)Gly][X1]GG-OEt) | – | 33.3% | –
